These results are taken from a melting point compilation (Tetko et al.; mined from patent text by program, amines drawn as free bases though some values may be those of a salt).

For `O=C(O)CCc1cc2nc(C(F)(F)F)ccc2n1S(=O)(=O)c1cccc2ccccc12`, the melting point (usually the temperature of the solid-liquid transition) is 116 to 117 °C.

In the case of `CC(=O)C1C(Cl)CC2C3CCC4CC(O)C(Cl)CC4(C)C3C(=O)CC21C` (stereo not drawn), the melting point lay within 192 to 194 °C.

`COc1cc(CN(C)c2ncnc3c(N4CCOCC4)nc(N4CCC(N(C)C)CC4)nc23)cc2ccccc12` registered a melting point of 130 °C.

Regarding `COc1csc2ccc(C(=O)CC(=O)C3CC3)c(OC)c12`, the melting point was in the range of 77.5 to 80 °C.

Turning to `CCOC(=O)/C=C/c1cnn(C)c1`, the melting point was 43 to 44 °C.

In the case of `CCOC(=O)c1c(C)nn(C)c1CCl`, the melting point was 81 to 83 °C.

The compound `CC(=O)S[C@@H]1CCO[C@@H](/C(C)=C/c2ccc(C(F)(F)F)cc2)O1` (relative stereo) showed a melting point of 128 to 129 °C.

Compound `CCn1c(=O)c(C#N)c(N2CCCC2)c2ccc(C)nc21` registered a melting point of 211 to 213 °C.

Compound `CCOc1cc([C@@H]2CC=CC[C@H]2[N+](=O)[O-])ccc1OC` (racemic) showed a melting point of 66 to 67 °C.

On to `CCCCCC(CC(=O)Nc1cc(C(N)=O)ccc1C(C)(C)C)c1ccc(OCCCOCC)cc1OC` (stereo not drawn), for which the melting point lay within 135 to 136 °C.

For `CCC12CCC3C4CCCC=C4CCC3C1CCC2O` (stereo not drawn), the melting point is 118 to 120 °C.

For the compound `COCC1CN(c2ccc(OCCCC3(C)OC(COS(=O)(=O)c4ccc(C)cc4)C(COS(=O)(=O)c4ccc(C)cc4)O3)cc2)C(=O)O1` (stereo not drawn), the melting point stood at 104 °C.

The compound `CC(C)CC1(CCCCN2CCN(c3cccc4c3OCCO4)CC2)C(=O)Nc2ccccc21` (stereo not drawn) had a melting point of 152 to 154 °C.

On to `COC(=O)C(=CNc1ccc(O)cc1C)C(=O)C=CC1=CCCC1`, for which the melting point fell in the range of 148 to 151 °C.

For the compound `OC(CNC1CC1)c1ccc(Br)cc1` (stereo not drawn), the melting point lay within 105 to 107 °C.

Take `CC[C@H](C)[C@H](NC(=O)O[C@@H](CC(C)C)C(=O)OCc1ccccc1)C(=O)NC(C)C`: the melting point fell in the range of 90 to 92 °C.

For the compound `COc1ccc(C)cc1NC(=O)Nc1ccc(N2CCN(C(=O)Nc3ccc(N)cc3C(F)(F)F)CC2)cc1`, the melting point is 244 to 246 °C.

As for `FC(F)(F)c1ccc2nc(N3CCN(c4ncccc4C(F)(F)F)CC3)n(Cc3ccccc3)c2c1`, the melting point was in the range of 154 to 157 °C.

For `CC(=O)Oc1cc(-n2c(=O)cc(C(F)(F)F)n(C)c2=O)c(F)cc1Cl`, the melting point lay within 99 to 101 °C.

Take `CC(=O)SCC(Cc1ccccc1)C(=O)Nc1cc(C(=O)O)ccc1O` (stereo not drawn): the melting point lay within 202 to 206 °C.

For the compound `Nc1sc2c(c1C(=O)c1ccsc1)CCCC2`, the melting point was in the range of 133 to 135 °C.

Take `CCC(=O)Nc1ccc(C2=NNC(=O)C3CC23)cc1` (stereo not drawn): the melting point lay in the range of 268 to 270 °C.

On to `Cc1nc(OCC#N)c(C#N)c(N2CCc3ccccc3CC2)n1`, for which the melting point fell in the range of 68 to 74 °C.

In the case of `ClCCCCOc1ccc2ccccc2c1`, the melting point came out at 112 °C.

`CCCc1c(OCCCCCOc2ccc3nc(CCC(=O)OCC)ccc3c2CCC(=O)OCC)ccc2c1OCCC2=O` showed a melting point of 59 to 61 °C.

For `N#Cc1cc(Cc2ccncc2)cc(-c2cccc([N+](=O)[O-])c2)c1O`, the melting point is 225 °C.

For the compound `CCCCOc1ccc(OCC2(O)CN3CCC2CC3)cc1` (stereo not drawn), the melting point is 110 to 112 °C.

Consider `COc1ccc(S(=O)(=O)N(CC(N)=O)c2ccc(Cl)cc2C(O)c2cc(Cl)ccc2Cl)cc1OC` (stereo not drawn), for which the melting point was determined as 132 °C.

The compound `CCn1c(=O)n(-c2ccc(-n3ccn4c5ccccc5nc34)cc2)c2ncccc21` gave a melting point of 220 to 221 °C.

Take `Cc1ccc(-c2ccccc2)c(NC(=N)N2CCOCC2)c1`: the melting point was 154 to 155 °C.

Turning to `Cc1ncc(C(=O)O)c(C2=NC(C)(C(C)C)C(=O)N2)n1` (stereo not drawn), the melting point was 56 to 57 °C.

Regarding `COC(=O)C(=CC(=CN(C)C)c1cc(OCc2ccccc2)ccc1[N+](=O)[O-])[N+](=O)[O-]`, the melting point was 158 to 165 °C.

For `COc1ccccc1CSc1nc2cnccc2[nH]1`, the melting point lay in the range of 193 to 195 °C.

In turn, `CCc1cccc(CC)c1-n1cncc1C(N)=O` registered a melting point of 171 to 172 °C.

`COc1nc2c(N)nc3ccccc3c2n1Cc1ccccc1` displayed a melting point of 240 to 242 °C.

Consider `O=C(Nc1cc(-c2cc(Nc3ccc(N4CCNCC4=O)cn3)c(=O)[nH]n2)ccc1F)c1cc2c(s1)CCCC2`, for which the melting point is 285 to 287 °C.

In the case of `CCOC(=O)CNC(=O)CC(O)CCl` (stereo not drawn), the melting point was 53 to 54 °C.

As to `O=C(O)c1csnc1-c1cccc(Cl)c1`, the melting point lay within 215 to 216 °C.

Compound `CCC(CC)c1ccc(Cl)c2nc(Nc3ccc(C)cc3Br)n(CCCCO)c12` gave a melting point of 115 to 118 °C.

As to `CC(=O)Nc1ccc2c(c1)C(c1cccn1-c1cccc(Cl)c1)C(=O)N2` (stereo not drawn), the melting point came out at 251 °C.

In the case of `O=C1CCN(C(=O)c2cc(C(F)(F)F)cc(C(F)(F)F)c2)C(Cc2ccccc2)C1` (stereo not drawn), the melting point was 102 °C.

For `C(=C(c1ccccc1)c1ccccc1)P(c1ccccc1)c1ccccc1`, the melting point is 116 to 118 °C.

Regarding `Cc1ccccc1N1CCN(Cc2n[nH]c3ccccc23)CC1`, the melting point was 135 to 136 °C.

As to `CCc1nc2c(N)nc3cc(CCNS(C)(=O)=O)ccc3c2n1CC(C)(C)O`, the melting point fell in the range of 149 to 152 °C.

Consider `O=C(O)CC[C@@H](Cc1ccc(OCc2ccccc2)cc1)NC(=O)CCCCCCc1ccccc1`, for which the melting point lay within 128 to 130 °C.

The compound `O=C(Nc1ccccc1)C1=C(C(F)(F)F)S(=O)(=O)CCS1(=O)=O` yielded a melting point of 105 to 108 °C.

Compound `Cc1cccc(CCC(CO)n2cnc(C(N)=O)c2)c1` (stereo not drawn) came in with a melting point of 116 to 118 °C.

The compound `Cn1c(=O)c(NC(=O)Nc2ccc(F)cc2F)c(-c2ccccc2)c2cc(Cl)ccc21` came in with a melting point of 204 to 206 °C.

`CC(=O)/C(=N/O[C@H]1CC[C@H](C(=O)N(C)C)CC1)C(=O)OC(C)(C)C` came in with a melting point of 109 to 110 °C.

`COC(=O)c1cc(C=O)ccc1[N+](=O)[O-]` displayed a melting point of 76.7 °C.

`O=C(O)/C=C/C=C(c1cccc(F)c1)c1cccc(F)c1` showed a melting point of 142 to 143 °C.

Take `Oc1ccccc1-n1cnc(-c2ccccc2)n1`: the melting point is 148 to 154 °C.

`Cc1nc(CCc2nc3ccc(F)cc3c(=O)n2-c2cccnc2C)cs1` showed a melting point of 151 to 153 °C.

Consider `O=C1CC(c2ccc(C3CCCCCC3)cc2)C(=O)O1` (stereo not drawn), for which the melting point was 102 to 104 °C.

On to `OCCCCCCCCCCCOc1ccccc1`, for which the melting point lay within 56 to 58 °C.

`NNC(=O)c1ccccc1CS(N)(=O)=O` returned a melting point of 221 to 222 °C.

As to `Fc1cc(C(F)(F)F)ccc1/C=C/c1nc(COc2ccc(-c3nc(Cn4ccnc4)cs3)cc2)co1`, the melting point lay in the range of 133 to 135 °C.

Turning to `Cc1c(NC(=O)c2ccc(-c3ccccc3F)cc2)ccc2cc(CN3CCCC3)cnc12`, the melting point was in the range of 133 to 135 °C.

Turning to `CCCCN(CCCC)C(=O)CN1CC(c2ccc3c(c2)OCO3)C(C(=O)O)C1c1ccncc1` (stereo not drawn), the melting point was 131 to 132 °C.

As to `COc1nc(Cl)cc2nc(S(=O)(=O)Nc3ccn(C)n3)nn12`, the melting point was in the range of 185 to 187 °C.

With `CNC(=S)NCCCSc1ncccn1`, the melting point is 120 to 121 °C.

As to `COc1nc2cc(Cl)ccc2c(=O)c2sccc12`, the melting point was 195 to 197 °C.

On to `O=C(OCC1(c2ccccc2)CC1)c1cccc2nnsc12`, for which the melting point is 55 to 57 °C.
